These results are taken from patent US20210300924A1, “5-[6-[[3-(4,5,6,7-TETRAHYDROPYRAZOLO[4,3-C]PYRIDIN-1-YL)AZETIDIN-1-YL]METHYL]MORPHOLIN-4-YL]QUINOLINE-8-CARBONITRILE DERIVATIVES AND SIMILAR COMPOUNDS AS TLR7-9 ANTAGONISTS FOR TREATING SYSTEMIC LUPUS ERYTHEMATOSUS” (Hoffmann-La Roche Inc., priority 2018, published 2021).

The test deals with T1, human TLR7 (Homo sapiens, UniProt Q9NYK1).
T1 construct: host or cells: HEK293 (HEK-Blue hTLR7)
T1 sequence (Q9NYK1 27-1049): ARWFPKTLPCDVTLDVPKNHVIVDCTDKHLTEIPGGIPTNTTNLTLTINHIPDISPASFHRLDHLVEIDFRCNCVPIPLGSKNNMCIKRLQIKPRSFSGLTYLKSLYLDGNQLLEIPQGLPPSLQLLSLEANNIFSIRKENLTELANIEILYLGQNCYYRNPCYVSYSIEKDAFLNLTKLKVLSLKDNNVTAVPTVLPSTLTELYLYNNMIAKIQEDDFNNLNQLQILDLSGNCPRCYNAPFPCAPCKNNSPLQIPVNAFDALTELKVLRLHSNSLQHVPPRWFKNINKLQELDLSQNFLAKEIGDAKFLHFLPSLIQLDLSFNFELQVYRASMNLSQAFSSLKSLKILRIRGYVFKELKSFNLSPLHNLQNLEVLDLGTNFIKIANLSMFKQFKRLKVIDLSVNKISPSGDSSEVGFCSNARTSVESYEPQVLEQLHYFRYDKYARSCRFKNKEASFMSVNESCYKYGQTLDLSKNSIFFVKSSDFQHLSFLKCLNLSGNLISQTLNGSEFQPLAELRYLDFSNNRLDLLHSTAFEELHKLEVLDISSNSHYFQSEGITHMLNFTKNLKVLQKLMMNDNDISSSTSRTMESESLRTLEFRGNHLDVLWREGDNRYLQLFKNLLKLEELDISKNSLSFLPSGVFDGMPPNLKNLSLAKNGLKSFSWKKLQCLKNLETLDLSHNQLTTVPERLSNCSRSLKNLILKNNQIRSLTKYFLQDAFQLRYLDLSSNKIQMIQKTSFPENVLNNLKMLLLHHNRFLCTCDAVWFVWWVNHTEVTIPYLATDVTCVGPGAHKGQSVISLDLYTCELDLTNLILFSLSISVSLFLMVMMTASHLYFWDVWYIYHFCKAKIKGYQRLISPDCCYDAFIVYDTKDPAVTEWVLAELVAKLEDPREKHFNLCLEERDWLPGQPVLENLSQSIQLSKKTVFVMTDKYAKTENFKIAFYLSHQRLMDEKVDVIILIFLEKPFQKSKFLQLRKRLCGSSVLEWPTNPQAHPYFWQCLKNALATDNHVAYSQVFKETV
Description: HEK293-Blue-hTLR-7 cells assay. The format is cell-based. Particulars: HEK293-Blue-hTLR7 cells, R848 stimulation, 20 hrs, SEAP reporter; read-out: HEK/hTLR7 IC50. The source says: HEK293-Blue-hTLR-7 cells assay:
A stable HEK293-Blue-hTLR-7 cell line was purchased from InvivoGen (Cat. #: hkb-htlr7, San Diego, Calif., USA). These cells were originally designed for studying the stimulation of human TLR7 by monitoring the activation of NF-κB. A SEAP (secreted embryonic alkaline phosphatase) reporter gene was placed under the control of the IFN-β minimal promoter fused to five NF-κB and AP-1-binding sites. The SEAP was induced by activating NF-κB and AP-1 via stimulating HEK-Blue hTLR7 cells with TLR7 ligands. Therefore the reporter expression was declined by TLR7 antagonist under the stimulation of a ligand, such as R848 (Resiquimod), for incubation of 20 hrs. The cell culture supernatant SEAP reporter activity was determined using QUANTI-Blue™ kit (Cat. #: rep-qb1, Invivogen, San Diego, Ca, USA) at a wavelength of 640 nm, a detection medium that turns purple or blue in the presence of alkaline phosphatase.
HEK293-Blue-hTLR7 cells were incubated at a density of 250,000-450,000 cells/mL in a volume of 170 μL in a 96-well plate in Dulbecco's Modified Eagle's medium (DMEM) containing 4.5 g/L glucose, 50 U/mL penicillin, […], […], 2 mM L-glutamine, 10% (v/v) heat-inactivated fetal bovine serum with addition of 20 μL test compound in a serial dilution in the presence of final DMSO at 1% and 10 μL of 20 uM R848 in above DMEM, perform incubation under 37° C. in a CO2 incubator for 20 hrs. Then 20 μL of the supernatant from each well was incubated with 180 μL Quanti-blue substrate solution at 37° C. for 2 hrs and the absorbance was read at 620˜655 nm using a spectrophotometer. The signaling pathway that TLR7 activation leads to downstream NF-κB activation has been widely accepted, and therefore similar reporter assay was modified for evaluating TLR7 antagonist.
For `C[C@@H]1CN(c2ccc(C#N)c3ncccc23)C[C@H](CN2CC(n3cc4c(n3)CCN[C@H]4C)C2)O1` [Example 23, 5-[(2R,6S)-2-methyl-6-[[3-[(4S)-4-methyl-4,5,6,7-tetrahydropyrazolo[4,3-c]pyridin-2-yl]azetidin-1-yl]methyl]morpholin-4-yl]quinoline-8-carbonitrile], the IC50 came to 0.013 µM.

As for `C[C@@H]1CN(c2ccc(C#N)c3ncccc23)C[C@H](CN2CCC(n3ncc4c3CCNC4)CC2)O1` [Example 35, 5-[(2R,6S)-2-methyl-6-[[4-(4,5,6,7-tetrahydropyrazolo[4,3-c]pyridin-1-yl)-1-piperidyl]methyl]morpholin-4-yl]quinoline-8-carbonitrile], the IC50 turned out to be 0.005 µM.

For the molecule `C[C@@H]1CN(c2ccc(C#N)c3ncccc23)C[C@H](CN2CCC(n3cc4c(n3)CCNC4)CC2)O1` [Example 36, 5-[(2R,6S)-2-methyl-6-[[4-(4,5,6,7-tetrahydropyrazolo[4,3-c]pyridin-2-yl)-1-piperidyl]methyl]morpholin-4-yl]quinoline-8-carbonitrile], the IC50 was determined as 0.018 µM.

Regarding `Cc1c2c(nn1C1CN(C[C@H]3CN(c4ccc(C#N)c5ncccc45)C[C@@H](C)O3)C1)CCNC2` [Example 13, 5-[(2R,6S)-2-methyl-6-[[3-(3-methyl-4,5,6,7-tetrahydropyrazolo[4,3-c]pyridin-2-yl)azetidin-1-yl]methyl]morpholin-4-yl]quinoline-8-carbonitrile], the IC50 turned out to be 0.014 µM.

Turning to `C[C@@H]1CN(c2ccc(C#N)c3ncccc23)C[C@H](CN2CC(n3cc4c(n3)[C@H](C)CNC4)C2)O1` (single isomer, unassigned) [Example 25], the IC50 turned out to be 0.004 µM.

Turning to `C[C@@H]1CN(c2ccc(C#N)c3ncccc23)C[C@H](CN2CC(n3cc4c(n3)CCN[C@@H]4C)C2)O1` [Example 21, 5-[(2R,6S)-2-methyl-6-[[3-[(4R)-4-methyl-4,5,6,7-tetrahydropyrazolo[4,3-c]pyridin-2-yl]azetidin-1-yl]methyl]morpholin-4-yl]quinoline-8-carbonitrile], the IC50 turned out to be 0.018 µM.

For `C[C@@H]1CN(c2ccc(C#N)c3ncccc23)C[C@H](CN2CC(n3ncc4c3CNC4)C2)O1` [Example 10, 5-[(2S,6R)-2-[[3-(5,6-dihydro-4H-pyrrolo[3,4-c]pyrazol-1-yl)azetidin-1-yl]methyl]-6-methyl-morpholin-4-yl]quinoline-8-carbonitrile], the IC50 worked out at 0.016 µM.

As to `C[C@@H]1CN(c2ccc(C#N)c3ncccc23)C[C@H](CN2CC(n3cc4c(n3)C(C)(C)CNC4)C2)O1` [Example 24, 5-[(2S,6R)-2-[[3-(7,7-dimethyl-5,6-dihydro-4H-pyrazolo[4,3-c]pyridin-2-yl)azetidin-1-yl]methyl]-6-methyl-morpholin-4-yl]quinoline-8-carbonitrile], the IC50 amounted to 0.004 µM.

On to `C[C@@H]1CN(c2ccc(C#N)c3ncccc23)C[C@H](CN2CC(n3cc4c(n3)CN(C)CC4)C2)O1` [Example 5, 5-[(2R,6S)-2-methyl-6-[[3-(6-methyl-5,7-dihydro-4H-pyrazolo[3,4-c]pyridin-2-yl)azetidin-1-yl]methyl]morpholin-4-yl]quinoline-8-carbonitrile], for which the IC50 worked out at 0.004 µM.

For the molecule `C[C@@H]1CN(c2ccc(C#N)c3ncccc23)C[C@H](CN2CC(n3ncc4c3CCNC4)C2)O1` [Example 1, 5-[(2R,6S)-2-methyl-6-[[3-(4,5,6,7-tetrahydropyrazolo[4,3-c]pyridin-1-yl)azetidin-1-yl]methyl]morpholin-4-yl]quinoline-8-carbonitrile], the IC50 was 0.01 µM.

Consider `C[C@@H]1CN(c2ccc(C#N)c3ncccc23)C[C@H](CN2CC(n3cc4c(n3)CNC4)C2)O1` [Example 11, 5-[(2S,6R)-2-[[3-(5,6-dihydro-4H-pyrrolo[3,4-c]pyrazol-2-yl)azetidin-1-yl]methyl]-6-methyl-morpholin-4-yl]quinoline-8-carbonitrile], for which the IC50 came out at 0.017 µM.

Regarding `Cc1nn(C2CN(C[C@H]3CN(c4ccc(C#N)c5ncccc45)C[C@@H](C)O3)C2)c2c1CNCC2` [Example 12, 5-[(2R,6S)-2-methyl-6-[[3-(3-methyl-4,5,6,7-tetrahydropyrazolo[4,3-c]pyridin-1-yl)azetidin-1-yl]methyl]morpholin-4-yl]quinoline-8-carbonitrile], the IC50 was determined as 0.015 µM.

`C[C@@H]1Cc2c(cnn2C2CN(C[C@H]3CN(c4ccc(C#N)c5ncccc45)C[C@@H](C)O3)C2)CN1` [Example 16, 5-[(2R,6S)-2-methyl-6-[[3-[(6R)-6-methyl-4,5,6,7-tetrahydropyrazolo[4,3-c]pyridin-1-yl]azetidin-1-yl]methyl]morpholin-4-yl]quinoline-8-carbonitrile]: the IC50 came out at 0.004 µM.

Regarding `C[C@@H]1CN(c2ccc(C#N)c3ncccc23)C[C@H](CN2CC(n3ncc4c3CN[C@@H](C)C4)C2)O1` (single isomer, unassigned) [Example 27], the IC50 was determined as 0.006 µM.

For the molecule `C[C@@H]1CN(c2ccc(C#N)c3ncccc23)C[C@H](CN2CC(n3cc4c(n3)[C@@H](C)NCC4)C2)O1` (single isomer, unassigned) [Example 33], the IC50 was 0.007 µM.

Consider `CC(C)N1CCc2cnn(C3CN(C[C@H]4CN(c5ccc(C#N)c6ncccc56)C[C@@H](C)O4)C3)c2C1` [Example 8, 5-[(2S,6R)-2-[[3-(6-isopropyl-5,7-dihydro-4H-pyrazolo[3,4-c]pyridin-1-yl)azetidin-1-yl]methyl]-6-methyl-morpholin-4-yl]quinoline-8-carbonitrile], for which the IC50 stood at 0.018 µM.
